# Where two headings read alike, the source gives them in different places.
# What was measured:
# [1] = biological target: KRAS G12D/SOS/c-Raf complex (Homo sapiens (Human), UniProt P01116, G12D); assay: KRAS G12D/SOS/c-Raf complex formation inhibitory activity (TR-FRET); format: biochemical; conditions: human recombinant proteins, 1 hour at room temperature, read-out: IC50, KRAS G12D/SOS/c-Raf complex formation inhibition
# Procedure: Using human recombinant KRAS G12D, SOS and c-Raf proteins, the inhibitory activity of subject compounds on the complex formation of the proteins was examined by a time-resolved fluorescence resonance energy transfer (TR-FRET) method.
# Biotinylated AviTag-KRAS G12D (amino acid region of 1-185, GDP) (2.5 μL; 400 nM) and subject compounds dissolved in an assay buffer (50 mM HEPES, 150 mM NaCl, 5 mM MgCl2, 0.05% Tween 20, pH 7.0) were added to a 384-well plate (from Corning) in a liquid volume of 2.5 μL at 40,000 nM to 40 nM. Son of Sevenless (SOS) (amino acid region of 564-1049, 2.5 μL; 1.3 μM) and c-Raf (amino acid region of 51-131) GST (2.5 μL; 130 nM) containing GTP (from Sigma-Aldrich; 2 μM) were added to the plate, and the plate was allowed to stand for 1 hour at room temperature. Then, a mixture liquid (10 μL) of LANCE Ulight-anti-GST (from PerkinElmer; 120 nM) and LANCE Eu-W1024 labeled Streptoavidin (from PerkinElmer; 100 ng/mL) was added, and the 620-nm and 665-nm fluorescence intensities were measured using EnVision 2104 (from PerkinElmer) under the conditions of an excitation wavelength of 337 nm. After standardizing the values with the fluorescence intensity at a reference wavelength of 620 nm, the 50% inhibitory concentrations (IC50) were calculated by Sigmoid-Emax model nonlinear regression analysis with the signaling value in treatment with the solvent taken as 0% inhibition and with the signaling value without the addition of GTP taken as 100% inhibition.
# [2] = test system: KRAS G12D mutant-positive pancreatic cancer line AsPC-1; assay: Non-anchorage-dependent cell growth inhibitory activity in AsPC-1 (spheroid 3D culture); format: cell-based; conditions: Homo sapiens, ASPC1, 144 h, read-out: IC50, non-anchorage-dependent cell growth inhibition
# Procedure: The non-anchorage-dependent cell growth inhibitory activities of subject compounds were evaluated by spheroid 3D cell culture.
# AsPC-1 cells were seeded at 36 μL/well on a low-cell-adhesive round bottom 384-well plate (Prime Surface: from Sumitomo Bakelite) to give 5×10^2 cells per well. The cell culture was performed under the same conditions as in the Test Example 2.
# The next day, the subject compounds (6 points having final concentrations in the range of 10 μM to 3.0 nM) and DMSO, which was the solvent for the subject compounds, as a negative control were diluted 100-fold with a fresh medium and were each added at 4 μL per well. After culturing in the presence of 5% CO2 at 37° C. for six days, CellTiter Glo 2.0 (from Promega) was added at 20 μL per well. After stirring with a plate mixer (from FINEPCR) at normal temperature for an hour, the luminescent signals were measured with ARVO X3 (from PerkinElmer).
# With the signaling value in treatment with DMSO taken as 0% inhibition and with the signaling value in the medium alone without cells taken as 100% inhibition, the 50% inhibition values (IC50) were calculated by Sigmoid-Emax model nonlinear regression analysis.
# [3] = test system: ERK phosphorylation (Thr202/Tyr204) in KRAS G12D mutant-positive pancreatic cancer line AsPC-1; assay: ERK phosphorylation inhibitory activity in AsPC-1 (cell ELISA); format: cell-based; conditions: Homo sapiens, ASPC1; AsPC-1 cells, 2 hours culture, cell ELISA; read-out: IC50, ERK phosphorylation inhibition
# Procedure: The ERK phosphorylation inhibitory activities of subject compounds were evaluated by measuring phosphorylation of the 202th threonine (Thr202) and the 204th tyrosine (Tyr204) of ERK located downstream of the KRAS signal by cell ELISA.
# AsPC-1 cells (ATCC, CRL-1682) were seeded at 36 μL/well on a 384-well plate (from Greiner bio-one) to give 2.0×10^4 cells per well. As for the cell culture conditions, RPMI-1640 medium (from Sigma-Aldrich) containing 10% fetal bovine serum (from GE Life Sciences) was used in the presence of 5% CO2 at 37° C.
# The next day, the subject compounds (6 points having final concentrations in the range of 10 μM to 0.3 nM), trametinib (MEK inhibitor) of a final concentration of 1 μM as a positive control and DMSO, which was the solvent for the subject compounds, as a negative control were diluted 100-fold with a fresh medium and were each added at 4 μL per well, followed by culturing for 2 hours. After culturing, a 30% glyoxal solution (40% glyoxal [from Wako] was diluted with Phosphate Buffered Saline [PBS; from Wako) was quickly added at 30 μL per well, and the plate was allowed to stand for an hour at room temperature to thus immobilize the cells. Then, the plate was centrifuged (110× g, seven seconds, hereinafter centrifugation was performed under the same conditions unless otherwise specified) to remove the supernatant, and 0.1% Triton X-100 (from Amersham Biosciences)—containing PBS was added at 20 μL per well. After allowing the plate to stand for 10 minutes at room temperature, the supernatant was removed by centrifugation, and the same operation was further repeated. Next, 0.5% sodium dodecyl sulfate (SDS; from Invitrogen)-containing PBS was added at 20 μL per well. The plate was allowed to stand at room temperature for 30 minutes and was then centrifuged to remove the supernatant. Subsequently, a blocking solution (Intercept Blocking Buffer; from LI-COR Biosciences) was added at 20 μL per well, and the plate was allowed to stand for an hour at room temperature. The supernatant was removed by centrifugation, and an ERK (Thr202/Tyr204) phosphorylation antibody (Phospho-p44/42 MAPK (Erk 1/2) (Thr202/Tyr204) (D13.14.4E) XP Rabbit mAb; from Cell Signaling Technology) diluted 2,500-fold with the blocking solution was added at 10 μL per well as a primary antibody. The plate was allowed to stand at 4° C. overnight.
# The next day, the plate was centrifuged to remove the supernatant, and 0.05% Tween-20-containing PBS (from Thermo Scientific; 20× PBS Tween-20 was diluted 20-fold with ion exchange water and used) was added at 20 μL per well. The supernatant was removed by centrifugation to thus wash each well. The washing was performed three times in total. After washing, an IRDye 800CW Goat anti-Rabbit IgG (from LI-COR Biosciences) diluted 1,000-fold with the blocking solution was added at 10 μL per well as a secondary antibody, and the plate was allowed to stand for an hour at room temperature. The plate was centrifuged to remove the supernatant, and each well was washed three times with 0.05% Tween-20-containing PBS in the same manner as after the primary antibody reaction. Centrifugation after the third washing was performed at 171×g for 17 seconds. After removing the supernatant, the plate was dried as it was with air at room temperature for three hours or more, and the 800-nm fluorescent signals were measured with Aerius (from LI-COR Biosciences).
# With the signaling value at the time of addition of DMSO taken as 0% inhibition and with the signaling value at the time of addition of […] trametinib taken as 100% inhibition, the 50% inhibition values (IC50) were calculated by Sigmoid-Emax model nonlinear regression analysis.
# [4] = AsPC-1 spheroid 3D culture, six days, CellTiter Glo 2.0
# Chain of KRAS G12D/SOS/c-Raf complex (P01116 other isoform, or with tags, fused parts or gaps G12D): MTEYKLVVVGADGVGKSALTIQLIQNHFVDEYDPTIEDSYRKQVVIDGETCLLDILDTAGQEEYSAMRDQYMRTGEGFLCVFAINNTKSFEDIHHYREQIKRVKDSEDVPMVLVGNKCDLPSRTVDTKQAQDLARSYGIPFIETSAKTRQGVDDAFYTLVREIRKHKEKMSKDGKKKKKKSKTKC
Compound,IC50 [1],"IC50 [2, 4]",IC50 [3],IC50 [2]
"Cc1c(F)cc2[nH]ncc2c1-c1c(C2CC2)cc2c(N3C[C@@H]4C[C@H]3CN4)nc(OC3CCOCC3)nc2c1OCc1ccc(Cn2c(=O)n(C)c3nccnc32)cc1 (single isomer, unassigned) [Example 1]",44 nM,68 nM,–,–
"Cc1c(F)cc2[nH]ncc2c1-c1c(C2CC2)cc2c(N3C[C@@H]4C[C@H]3CN4)nc(OC3CCOCC3)nc2c1OCc1ccc(CN2CCN(C)CC2=O)cc1 [Example 2, 1-({4-[({6-cyclopropyl-4-[(1S,4S)-2,5-diazabicyclo[2.2.1]heptan-2-yl]-7-(6-fluoro-5-methyl-1H-indazol-4-yl)-2-[(oxan-4-yl)oxy]quinazolin-8-yl}oxy)methyl]phenyl}methyl)-4-methylpiperazin-2-one]",96 nM,166 nM,49 nM,–
"Cc1c(F)cc2[nH]ncc2c1-c1c(C2CC2)cc2c(N3C[C@@H]4C[C@H]3CN4)nc(OC3CCOCC3)nc2c1OCc1ccc(Cc2ncn(C3COC3)n2)cc1 [Example 3, 6-cyclopropyl-4-[(1S,4S)-2,5-diazabicyclo[2.2.1]heptan-2-yl]-7-(6-fluoro-5-methyl-1H-indazol-4-yl)-2-[(oxan-4-yl)oxy]-8-[(4-{[1-(oxetan-3-yl)-1H-1,2,4-triazol-3-yl]methyl}phenyl)methoxy]quinazoline]",75 nM,128 nM,55 nM,–
"Cc1c(F)cc2[nH]ncc2c1-c1c(C2CC2)cc2c(N3C[C@@H]4C[C@H]3CN4)nc(OC3CCOCC3)nc2c1OCc1ccc(CN2CCN(CC3CC3)CC2=O)cc1 [Example 7, 1-({4-[({6-cyclopropyl-4-[(1S,4S)-2,5-diazabicyclo[2.2.1]heptan-2-yl]-7-(6-fluoro-5-methyl-1H-indazol-4-yl)-2-[(oxan-4-yl)oxy]quinazolin-8-yl}oxy)methyl]phenyl}methyl)-4-(cyclopropylmethyl)piperazin-2-one]",105 nM,–,–,80 nM
"CCc1nc(Cc2ccc(COc3c(-c4c(C)c(F)cc5[nH]ncc45)c(C4CC4)cc4c(N5C[C@@H]6C[C@H]5CN6)nc(OC5CCOCC5)nc34)cc2)nn1C [Example 15, 6-cyclopropyl-4-[(1S,4S)-2,5-diazabicyclo[2.2.1]heptan-2-yl]-8-({4-[(5-ethyl-1-methyl-1H-1,2,4-triazol-3-yl)methyl]phenyl}methoxy)-7-(6-fluoro-5-methyl-1H-indazol-4-yl)-2-[(oxan-4-yl)oxy]quinazoline]",88 nM,–,–,152 nM
"Cc1c(F)cc2[nH]ncc2c1-c1c(C2CC2)cc2c(N3C[C@@H]4C[C@H]3CN4)nc(OC3CCOCC3)nc2c1OCc1ccc(Cc2nc3n(n2)CCC3)cc1 [Example 18, 6-cyclopropyl-4-[(1S,4S)-2,5-diazabicyclo[2.2.1]heptan-2-yl]-8-({4-[(6,7-dihydro-5H-pyrrolo[1,2-b][1,2,4]triazol-2-yl)methyl]phenyl}methoxy)-7-(6-fluoro-5-methyl-1H-indazol-4-yl)-2-[(oxan-4-yl)oxy]quinazoline]",92 nM,–,–,192 nM
"Cc1c(F)cc2[nH]ncc2c1-c1c(C2CC2)cc2c(N3C[C@@H]4C[C@H]3CN4)nc(OC3CCOCC3)nc2c1OCc1ccc(Cc2ncn(C3CCOCC3)n2)cc1 [Example 19, 6-cyclopropyl-4-[(1S,4S)-2,5-diazabicyclo[2.2.1]heptan-2-yl]-7-(6-fluoro-5-methyl-1H-indazol-4-yl)-2-[(oxan-4-yl)oxy]-8-[(4-{[1-(oxan-4-yl)-1H-1,2,4-triazol-3-yl]methyl}phenyl)methoxy]quinazoline]",65 nM,–,–,189 nM
"Cc1c(F)cc2[nH]ncc2c1-c1c(C2CC2)cc2c(N3C[C@@H]4C[C@H]3CN4)nc(OC3CCOCC3)nc2c1OCc1ccc(Cc2cn3ccncc3n2)cc1 [Example 20, 6-cyclopropyl-4-[(1S,4S)-2,5-diazabicyclo[2.2.1]heptan-2-yl]-7-(6-fluoro-5-methyl-1H-indazol-4-yl)-8-({4-[(imidazo[1,2-a]pyrazin-2-yl)methyl]phenyl}methoxy)-2-[(oxan-4-yl)oxy]quinazoline]",70 nM,–,–,138 nM
"Cc1c(F)cc2[nH]ncc2c1-c1c(C2CC2)cc2c(N3C[C@@H]4C[C@H]3CN4)nc(OC3CCOCC3)nc2c1OCc1ccc(Cc2nc(C3CC3)n(C)n2)cc1 [Example 22, 6-cyclopropyl-8-({4-[(5-cyclopropyl-1-methyl-1H-1,2,4-triazol-3-yl)methyl]phenyl}methoxy)-4-[(1 S,4S)-2,5-diazabicyclo[2.2.1]heptan-2-yl]-7-(6-fluoro-5-methyl-1H-indazol-4-yl)-2-[(oxan-4-yl)oxy]quinazoline]",161 nM,209 nM,–,–
"Cc1c(F)cc2[nH]ncc2c1-c1c(C2CC2)cc2c(N3C[C@@H]4C[C@H]3CN4)nc(OC3CCOCC3)nc2c1OCc1ccc(CN2C(=O)CN(C)c3ncccc32)cc1 [Example 23, 1-({4-[({6-cyclopropyl-4-[(1S,4S)-2,5-diazabicyclo[2.2.1]heptan-2-yl]-7-(6-fluoro-5-methyl-1H-indazol-4-yl)-2-[(oxan-4-yl)oxy]quinazolin-8-yl}oxy)methyl]phenyl}methyl)-4-methyl-3,4-dihydropyrido[2,3-b]pyrazin-2(1H)-one]",68 nM,–,–,–
